LC retention time data for 56 compounds are collected here from the RepoRT retention time repository (doi:10.1021/acs.analchem.1c00972).

Data set [1] can be described thus: RP, Waters ACQUITY UPLC BEH C18, 100 × 1 mm, 1.7 µm, 50 °C, 0.3 mL/min, estimated dead time 0.17 min; A: water + 0.1% formic acid + 20 mM ammonium formate; B: methanol + 0.1% formic acid + 20 mM ammonium formate; gradient (min/%B) 0/0 15/100 21/100 22/0 30/0. Conditions: stereoisomer not certain.
Data set [2] in a line: RP, Waters ACQUITY UPLC BEH C18, 100 × 1 mm, 1.7 µm, 50 °C, 0.3 mL/min, estimated dead time 0.17 min; A: water + 10 mM ammonium bicarbonate; B: 10% water + 90% methanol + 10 mM ammonium bicarbonate; gradient (min/%B) 0/0 15/100 21/100 22/0 30/0. To be noted: stereoisomer not certain.

Turning to `O=C(O)COCCN1CCN(C(c2ccccc2)c2ccc(Cl)cc2)CC1` (configuration not stated) [Cetirizine], the results for the LC retention time in data set [1] and in data set [2] were 13.6 min and 14.8 min, respectively.
In the same order, the values of `CC=C(C)C(=O)OC1CCC2(C)C3CCC4C5(O)CC(O)C6(O)C(CN7CC(C)CCC7C6(C)O)C5(O)CC42OC13O` (configuration not stated) [Cevadine] are 12.6 min and 16.4 min.
On to `CCOP(=O)(OCC)OC(=CCl)c1ccc(Cl)cc1Cl` [Chlorfenvinphos], for which the LC retention time is 15.8 min in data set [1] and 16.1 min in data set [2].
With `NC(=NCCCCCCN=C(N)N=C(N)Nc1ccc(Cl)cc1)N=C(N)Nc1ccc(Cl)cc1` [Chlorohexidine], the LC retention time in data set [1] was 12.2 min; in data set [2], 6.38 min.
In the same order, the values of `COc1nc(C)nc(NC(=O)NS(=O)(=O)c2ccccc2Cl)n1` [Chlorsulfuron] are 12.3 min and 9.11 min.
With `O=C(O)c1cn(C2CC2)c2cc(N3CCNCC3)c(F)cc2c1=O` [Ciprofloxacin], the LC retention time in data set [1] is 8.34 min; in data set [2], 7.67 min.
For the compound `CCC1OC(=O)C(C)C(OC2CC(C)(OC)C(O)C(C)O2)C(C)C(OC2OC(C)CC(N(C)C)C2O)C(C)(OC)CC(C)C(=O)C(C)C(O)C1(C)O` (configuration not stated) [Clarithromycin], the LC retention time is 14.1 min in data set [1] and 16.6 min in data set [2].
Turning to `CC(C)(C)C(=O)C(Oc1ccc(Cl)cc1)n1ccnc1` (configuration not stated) [Climbazole], the LC retention time in data set [1] was 13.2 min; in data set [2] it was 15.1 min.
As for `CC1CC2C3CCC4=CC(=O)C=CC4(C)C3(F)C(O)CC2(C)C1(O)C(=O)CCl` (configuration not stated) [Clobetasol], the LC retention time in data set [1] was 14.1 min; in data set [2], 14.4 min.
The matching figures for `Clc1ccccc1-c1nnc(-c2ccccc2Cl)nn1` [Clofentezine (Apolo)]: 15.9 min and 16.3 min.
The matching figures for `Clc1cccc(Cl)c1NC1=NCCN1` [Clonidine]: 7.02 min and 10.2 min.
In the same order, the values of `COC(=O)C(c1ccccc1Cl)N1CCc2sccc2C1` (configuration not stated) [Clopidogrel] are 15.4 min and 16.5 min.
`O=C(O)c1nc(Cl)ccc1Cl` [Clopyralid]: the values for the LC retention time in data set [1] and in data set [2] were 6.09 min and 3.37 min, respectively.
In the same order, the values of `CCCCCC(C)OC(=O)COc1ccc(Cl)c2cccnc12` (configuration not stated) [Cloquintocet-mexyl] are 16.9 min and 17.3 min.
Consider `Clc1ccccc1C(c1ccccc1)(c1ccccc1)n1ccnc1` [Clotrimazole], for which the LC retention time in data set [1] was 13.9 min; in data set [2] it was 16.7 min.
The matching figures for `CN1CCN(C2=Nc3cc(Cl)ccc3Nc3ccccc32)CC1` [Clozapine]: 11.7 min and 15.7 min.
For the compound `COc1ccc2c3c1OC1C(O)C=CC4C(C2)N(C)CCC341` (configuration not stated) [Codein], the LC retention time in data set [1] was 6.77 min; in data set [2], 12.1 min.
In the same order, the values of `COc1cc2c(c(OC)c1OC)-c1ccc(OC)c(=O)cc1C(NC(C)=O)CC2` (configuration not stated) [Colchicine] are 11.4 min and 11.6 min.
For `O=c1ccc2ccccc2o1` [Coumarin], the LC retention time was 9.79 min in data set [1] and 9.93 min in data set [2].
Take `CC(=O)OC(C)(C)C=CC(=O)C(C)(O)C1C(O)CC2(C)C3CC=C4C(C=C(O)C(=O)C4(C)C)C3(C)C(=O)CC12C` (configuration not stated) [Cucurbitacin E]: the LC retention time is 14.4 min in data set [1] and 14.7 min in data set [2].
In the same order, the values of `Cc1ccc(-c2c(Cl)nc(C#N)n2S(=O)(=O)N(C)C)cc1` [Cyazofamid] are 15 min and 15.3 min.
Regarding `O=C1CCCCCCCCCCC1` [Cyclododecanone], the values for the LC retention time in data set [1] and in data set [2] were 16.1 min and 16.5 min, respectively.
For `O=C(c1ccccc1)C1CCCCC1` [Cyclohexylphenylketone], the LC retention time is 15.5 min in data set [1] and 15.9 min in data set [2].
The matching figures for `O=C(Cc1ccccc1)NC(=NOCC1CC1)c1c(C(F)(F)F)ccc(F)c1F` [Cyflufenamid]: 16 min and 16.3 min.
The matching figures for `CC(C1CC1)C(O)(Cn1cncn1)c1ccc(Cl)cc1` (configuration not stated) [Cyproconazole]: 14.5 min and 15 min.
As to `CC(=O)C1(O)CCC2C3C=C(Cl)C4=CC(=O)C5CC5C4(C)C3CCC21C` (configuration not stated) [Cyproterone], the values for the LC retention time in data set [1] and in data set [2] were 14.6 min and 14.9 min, respectively.
On to `O=c1cccc2n1CC1CNCC2C1` (configuration not stated) [Cytisin], for which the LC retention time was 2.31 min in data set [1] and 7.53 min in data set [2].
For the compound `CNCCCC(C#N)(c1ccc(OC)c(OC)c1)C(C)C` (configuration not stated) [D617], the figures for the LC retention time in data set [1] and in data set [2] were 10.8 min and 12.4 min, respectively.
For the compound `O=C1C(O)Oc2ccccc2N1O` (configuration not stated) [DIBOA], the LC retention time in data set [1] is 7.76 min; in data set [2], 3.05 min.
The matching figures for `COc1ccc2c(c1)OC(O)C(=O)N2O` (configuration not stated) [DIMBOA]: 8.5 min and 4.91 min.
The matching figures for `CN(C)S(=O)(=O)Nc1ccccc1` [DMSA]: 10.7 min and 10.7 min.
As for `Cc1ccc(NS(=O)(=O)N(C)C)cc1` [DMST], the LC retention time in data set [1] is 12 min; in data set [2], 12.1 min.
The matching figures for `CC(C)CN(CC(O)C(Cc1ccccc1)NC(=O)OC1COC2OCCC12)S(=O)(=O)c1ccc(N)cc1` (configuration not stated) [Darunavir]: 13.1 min and 13.4 min.
In the same order, the values of `Clc1ccc2c(c1)CCc1cccnc1C2=C1CCNCC1` [Desloratadine] are 11.9 min and 14.7 min.
In the same order, the values of `CCOC(=O)Nc1cccc(OC(=O)Nc2ccccc2)c1` [Desmedipham] are 13.5 min and 13.6 min.
On to `CNc1nc(NC(C)C)nc(SC)n1` [Desmetryn], for which the LC retention time in data set [1] was 11.7 min; in data set [2] it was 13.1 min.
The matching figures for `CC1(C)OC2CC3C4CCC5=CC(=O)C=CC5(C)C4C(O)CC3(C)C2(C(=O)CO)O1` (configuration not stated) [Desonide]: 13.6 min and 13.9 min.
In the case of `CC1CC2C3CCC4=CC(=O)C=CC4(C)C3(F)C(O)CC2(C)C1(O)C(=O)CO` (configuration not stated) [Dexamethasone], the LC retention time in data set [1] is 13.2 min; in data set [2] it was 13.5 min.
Regarding `CC(C)CCCCCCCOC(=O)c1ccccc1C(=O)OCCCCCCCC(C)C` [Di-iso-decylphthalate], the LC retention time in data set [1] was 20 min; in data set [2], 21.3 min.
In the same order, the values of `CC(C)CCCCCCOC(=O)c1ccccc1C(=O)OCCCCCCC(C)C` [Di-iso-nonylphthalate] are 19.7 min and 20.5 min.
In the same order, the values of `CCCCCCCOC(=O)c1ccccc1C(=O)OCCCCCCC` [Di-n-heptylphthalate] are 18.9 min and 19.4 min.
For the compound `C=CCOC(=O)c1ccccc1C(=O)OCC=C` [Diallylphthalate], the results for the LC retention time in data set [1] and in data set [2] were 14.2 min and 14.5 min, respectively.
The matching figures for `CC(=O)Nc1c(I)c(NC(C)=O)c(I)c(C(=O)O)c1I` [Diatrizoate]: 4.47 min and 3.99 min.
As to `CCOP(=S)(OCC)Oc1cc(C)nc(C(C)C)n1` [Diazinon], the LC retention time in data set [1] is 15.7 min; in data set [2], 16 min.
In the same order, the values of `O=C(OCc1ccccc1)c1ccccc1C(=O)OCc1ccccc1` [Dibenzylphthalate] are 16.3 min and 16.7 min.
In the same order, the values of `CCCCOC(=O)CCCCCCCCC(=O)OCCCC` [Dibutyl sebacate] are 18.1 min and 18.5 min.
In the same order, the values of `CC(C)(C)C(O)C(Cc1ccc(Cl)cc1Cl)n1cncn1` (configuration not stated) [Dichlobutrazol] are 15.4 min and 15.8 min.
Take `O=C(OC1CCCCC1)c1ccccc1C(=O)OC1CCCCC1` [Dicyclohexylphthalat]: the results for the LC retention time in data set [1] and in data set [2] were 14.2 min and 12.5 min, respectively.
Regarding `CCCCCCCCCCOC(=O)c1ccccc1C(=O)OCCCCCCCCCC` [Didecylphthalat], the LC retention time in data set [1] was 20.1 min; in data set [2], 21.4 min.
In the same order, the values of `CCCCOCCOCCO` [Diethylene glycol monobutyl ether] are 10.8 min and 10.9 min.
In the same order, the values of `O=C(Nc1ccc(F)cc1F)c1cccnc1Oc1cccc(C(F)(F)F)c1` [Diflufenican] are 16.3 min and 16.7 min.
`CC(C)OC(=O)c1ccccc1C(=O)OC(C)C` [Diisopropylphthalate]: the figures for the LC retention time in data set [1] and in data set [2] were 15.1 min and 15.4 min, respectively.
`COc1ccc(C2Sc3ccccc3N(CCN(C)C)C(=O)C2OC(C)=O)cc1` (configuration not stated) [Diltiazem]: the LC retention time in data set [1] is 11.8 min; in data set [2], 15.5 min.
Consider `COCC(C)N(C(=O)CS(=O)CC(=O)O)c1c(C)csc1C` (configuration not stated) [Dimethenamid M31], for which the LC retention time in data set [1] is 11.4 min; in data set [2], 10.6 min.
Consider `COc1ccc(C(=CC(=O)N2CCOCC2)c2ccc(Cl)cc2)cc1OC` [Dimethomorph], for which the LC retention time in data set [1] is 14.4 min; in data set [2], 14.7 min.
Take `COC(=O)c1ccc(C(=O)OC)cc1` [Dimethyl terephthalate]: the LC retention time in data set [1] was 11.1 min; in data set [2], 20.7 min.
